Assay results: PubChem BioAssay (NCI)
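Compound exposure: 48 hours, 5 concentrations, 96-well plates. GI50: concentration for 50% inhibition of growth. TGI: concentration producing complete growth inhibition.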

Legend:
Assay in all cases: NCI tumour cell line growth inhibition, 48 h
[1] = system: NCI-H460 lung
[2] = system: SK-MEL-2 melanoma
[3] = system: A498 renal
[4] = system: COLO 205 colon
[5] = system: NCI-H23 lung
[6] = system: SF-268 CNS
[7] = system: OVCAR-4 ovarian
[8] = system: SF-295 CNS
[9] = system: PC-3 prostate
[10] = system: MDA-MB-435
[11] = system: NCI/ADR-RES ovarian
[12] = system: M14 melanoma
[13] = system: ACHN renal
[14] = system: T-47D breast
[15] = system: OVCAR-5 ovarian
[16] = system: NCI-H522 lung
[17] = system: NCI-H226 lung
[18] = system: UO-31 renal
[19] = system: IGROV1 ovarian
[20] = system: SR leukemia
[21] = system: HS 578T breast
[22] = system: SF-539 CNS
[23] = system: DU-145 prostate
[24] = system: HL-60(TB) leukemia
[25] = system: BT-549 breast
[26] = system: 786-0 renal
[27] = system: K-562 leukemia
[28] = system: HCT-116 colon
[29] = system: RPMI-8226 leukemia
[30] = system: HOP-92 NSCLC
[31] = system: KM12 colon
[32] = system: SK-OV-3 ovarian
[33] = system: SN12C renal
[34] = system: SNB-19 CNS
[35] = system: SK-MEL-28 melanoma
[36] = system: TK-10 renal
[37] = system: UACC-62 melanoma
[38] = system: HOP-62 NSCLC
[39] = system: A549 NSCLC
[40] = system: SNB-75 CNS
[41] = system: LOX IMVI melanoma
[42] = system: MCF7 breast
[43] = system: OVCAR-8 ovarian
[44] = system: SK-MEL-5 melanoma
[45] = system: RXF 393 renal
[46] = system: SW-620 colon
[47] = system: HCT-15 colon
[48] = system: MOLT-4 leukemia
[49] = system: HT29 colon
[50] = system: U251 CNS
[51] = system: EKVX NSCLC
[52] = system: CAKI-1 renal
[53] = system: OVCAR-3 ovarian
[54] = system: UACC-257 melanoma

COc1ccc2c(c1OC)CO[C@@H]2[C@H]1c2c(c(Br)c3c(c2OC)OCO3)CCN1C
GI50 [1]: 3.03 µM
TGI [1]: 14 µM
GI50 [2]: 5.77 µM
TGI [2]: 43.7 µM
GI50 [3]: 2.27 µM
TGI [3]: 4.43 µM
GI50 [4]: 31.4 µM
TGI [4]: 85.4 µM
GI50 [5]: 4.1 µM
TGI [5]: 22 µM
GI50 [6]: 5.16 µM
TGI [6]: 25.5 µM
GI50 [7]: > 100 µM
TGI [7]: > 100 µM
GI50 [8]: 2.84 µM
TGI [8]: 7.65 µM
GI50 [9]: 8.74 µM
TGI [9]: > 100 µM
GI50 [10]: 3.07 µM
TGI [10]: 8.69 µM
GI50 [11]: 4.45 µM
TGI [11]: > 100 µM
GI50 [12]: 3.47 µM
TGI [12]: 9.74 µM
GI50 [13]: 6.63 µM
TGI [13]: > 100 µM
GI50 [14]: 66.8 µM
TGI [14]: > 100 µM
GI50 [15]: 18.6 µM
TGI [15]: > 100 µM
GI50 [16]: 3.41 µM
TGI [16]: 23.1 µM
GI50 [17]: 5.16 µM
TGI [17]: 32.3 µM
GI50 [18]: 10.6 µM
TGI [18]: > 100 µM
GI50 [19]: 8.73 µM
TGI [19]: > 100 µM
GI50 [20]: 1.01 µM
TGI [20]: > 100 µM
GI50 [21]: 3.08 µM
TGI [21]: 12.7 µM
GI50 [22]: 2.83 µM
TGI [22]: 9.3 µM
GI50 [23]: 6.96 µM
TGI [23]: > 100 µM
GI50 [24]: 1.89 µM
TGI [24]: > 100 µM
GI50 [25]: 6.8 µM
TGI [25]: 35.9 µM
GI50 [26]: 4.66 µM
TGI [26]: 19.3 µM
GI50 [27]: 2.37 µM
TGI [27]: > 100 µM
GI50 [28]: 5.09 µM
TGI [28]: 22.6 µM
GI50 [29]: 4.24 µM
TGI [29]: > 100 µM
GI50 [30]: 6.74 µM
TGI [30]: 57.6 µM
GI50 [31]: 4.26 µM
TGI [31]: 23.8 µM
GI50 [32]: 61.2 µM
TGI [32]: > 100 µM
GI50 [33]: 3.98 µM
TGI [33]: 16.8 µM
GI50 [34]: 39.2 µM
TGI [34]: > 100 µM
GI50 [35]: 36.6 µM
TGI [35]: > 100 µM
GI50 [36]: 4.42 µM
TGI [36]: 21.6 µM
GI50 [37]: 2.07 µM
TGI [37]: 9.2 µM
GI50 [38]: 5.88 µM
TGI [38]: 32.7 µM
GI50 [39]: 7.53 µM
TGI [39]: > 100 µM
GI50 [40]: 40.2 µM
TGI [40]: > 100 µM
GI50 [41]: 2.67 µM
TGI [41]: 12.2 µM
GI50 [42]: 3.19 µM
TGI [42]: 29.3 µM
GI50 [43]: 7.3 µM
TGI [43]: > 100 µM
GI50 [44]: 2.42 µM
TGI [44]: 11.8 µM
GI50 [45]: 4.9 µM
TGI [45]: 29.8 µM
GI50 [46]: 3.57 µM
TGI [46]: > 100 µM
GI50 [47]: 2.69 µM
TGI [47]: > 100 µM
GI50 [48]: 3.55 µM
TGI [48]: > 100 µM
GI50 [49]: 30.7 µM
TGI [49]: > 100 µM
GI50 [50]: 4.59 µM
TGI [50]: 70.6 µM
GI50 [51]: 3.95 µM
TGI [51]: 34.8 µM
GI50 [52]: 4.17 µM
TGI [52]: 22.1 µM
GI50 [53]: 3.91 µM
TGI [53]: 13.6 µM
GI50 [54]: 4.28 µM
TGI [54]: 19.9 µM
